Measurements: patent US20070036839A1, “Phosphorylated glucomannane polysaccharides containing 1-6 and 1-2 linkages increase weight gain in poultry” (priority 2005, published 2007)

Assay: Weekly hematology (CBC with differential); as to Red Blood Cells HCT: test concentration or dose not given here; as to White Blood Cells BASO: test concentration or dose not given here; as to White Blood Cells EOS: test concentration or dose not given here; as to White Blood Cells LYMP + MONO: test concentration or dose not given here; as to White Blood Cells NEUT: test concentration or dose not given here; as to White Blood Cells WBC: test concentration or dose not given here
Assay type: in vivo, Male Ross x Ross broiler chickens

Candida utilis phosphoglucomannan-soy bean proteins [CUPS]
Others Het/Poly (Day 3, dose group 1): 19.75% | Red Blood Cells HCT (Day 3, dose group 1): 30.67% | White Blood Cells BASO (Day 3, dose group 1): 127.50 X/uL | White Blood Cells EOS (Day 3, dose group 1): 0.00 X/uL | White Blood Cells LYMP + MONO (Day 3, dose group 1): 2590.00 X/uL | White Blood Cells NEUT (Day 3, dose group 1): 782.50 X/uL | White Blood Cells WBC (Day 3, dose group 1): 3000 µL⁻¹ | Others Het/Poly (Day 3, dose group 3): 31.67% | Red Blood Cells HCT (Day 3, dose group 3): 27.80% | White Blood Cells BASO (Day 3, dose group 3): 45.00 X/uL | White Blood Cells EOS (Day 3, dose group 3): 0.00 X/uL | White Blood Cells LYMP + MONO (Day 3, dose group 3): 2060.00 X/uL | White Blood Cells NEUT (Day 3, dose group 3): 1061.67 X/uL | White Blood Cells WBC (Day 3, dose group 3): 3170 µL⁻¹ | Others Het/Poly (Day 3, dose group 20): 27.00% | Red Blood Cells HCT (Day 3, dose group 20): 27.00% | White Blood Cells BASO (Day 3, dose group 20): 16.00 X/uL | White Blood Cells EOS (Day 3, dose group 20): 16.00 X/uL | White Blood Cells LYMP + MONO (Day 3, dose group 20): 2950.00 X/uL | White Blood Cells NEUT (Day 3, dose group 20): 818.00 X/uL | White Blood Cells WBC (Day 3, dose group 20): 3800 µL⁻¹ | Others Het/Poly (Day 7, dose group 1): 45.00% | White Blood Cells BASO (Day 7, dose group 1): 0.00 X/uL | White Blood Cells EOS (Day 7, dose group 1): 0.00 X/uL | White Blood Cells LYMP + MONO (Day 7, dose group 1): 5500.00 X/uL | White Blood Cells NEUT (Day 7, dose group 1): 4500.00 X/uL | White Blood Cells WBC (Day 7, dose group 1): 10000 µL⁻¹ | Others Het/Poly (Day 7, dose group 3): 19.67% | White Blood Cells BASO (Day 7, dose group 3): 146.67 X/uL | White Blood Cells EOS (Day 7, dose group 3): 0.00 X/uL | White Blood Cells LYMP + MONO (Day 7, dose group 3): 5273.33 X/uL | White Blood Cells NEUT (Day 7, dose group 3): 1246.67 X/uL | White Blood Cells WBC (Day 7, dose group 3): 6670 µL⁻¹ | Others Het/Poly (Day 7, dose group 20): 33.00% | White Blood Cells BASO (Day 7, dose group 20): 180.00 X/uL | White Blood Cells EOS (Day 7, dose group 20): 0.00 X/uL | White Blood Cells LYMP + MONO (Day 7, dose group 20): 4513.33 X/uL | White Blood Cells NEUT (Day 7, dose group 20): 2306.67 X/uL | White Blood Cells WBC (Day 7, dose group 20): 7000 µL⁻¹ | Others Het/Poly (Day 15, dose group 1): 37.00% | Red Blood Cells HCT (Day 15, dose group 1): 32.00% | White Blood Cells BASO (Day 15, dose group 1): 266.67 X/uL | White Blood Cells EOS (Day 15, dose group 1): 0.00 X/uL | White Blood Cells LYMP + MONO (Day 15, dose group 1): 6963.33 X/uL | White Blood Cells NEUT (Day 15, dose group 1): 4436.67 X/uL | White Blood Cells WBC (Day 15, dose group 1): 11670 µL⁻¹ | Others Het/Poly (Day 15, dose group 3): 30.67% | Red Blood Cells HCT (Day 15, dose group 3): 29.00% | White Blood Cells BASO (Day 15, dose group 3): 406.67 X/uL | White Blood Cells EOS (Day 15, dose group 3): 0.00 X/uL | White Blood Cells LYMP + MONO (Day 15, dose group 3): 8000.00 X/uL | White Blood Cells NEUT (Day 15, dose group 3): 3926.67 X/uL | White Blood Cells WBC (Day 15, dose group 3): 12330 µL⁻¹ | Others Het/Poly (Day 15, dose group 20): 31.67% | Red Blood Cells HCT (Day 15, dose group 20): 24.33% | White Blood Cells BASO (Day 15, dose group 20): 180.00 X/uL | White Blood Cells EOS (Day 15, dose group 20): 0.00 X/uL | White Blood Cells LYMP + MONO (Day 15, dose group 20): 5213.33 X/uL | White Blood Cells NEUT (Day 15, dose group 20): 2606.67 X/uL | White Blood Cells WBC (Day 15, dose group 20): 8000 µL⁻¹ | Others Het/Poly (Day 21, dose group 1): 28.33% | Red Blood Cells HCT (Day 21, dose group 1): 30.33% | White Blood Cells BASO (Day 21, dose group 1): 630.00 X/uL | White Blood Cells EOS (Day 21, dose group 1): 0.00 X/uL | White Blood Cells LYMP + MONO (Day 21, dose group 1): 7243.33 X/uL | White Blood Cells NEUT (Day 21, dose group 1): 3126.67 X/uL | White Blood Cells WBC (Day 21, dose group 1): 11000 µL⁻¹ | Others Het/Poly (Day 21, dose group 3): 29.67% | Red Blood Cells HCT (Day 21, dose group 3): 31.00% | White Blood Cells BASO (Day 21, dose group 3): 523.33 X/uL | White Blood Cells EOS (Day 21, dose group 3): 0.00 X/uL | White Blood Cells LYMP + MONO (Day 21, dose group 3): 6016.67 X/uL | White Blood Cells NEUT (Day 21, dose group 3): 2793.33 X/uL | White Blood Cells WBC (Day 21, dose group 3): 9330 µL⁻¹ | Others Het/Poly (Day 21, dose group 20): 35.50% | Red Blood Cells HCT (Day 21, dose group 20): 31.50% | White Blood Cells BASO (Day 21, dose group 20): 850.00 X/uL | White Blood Cells EOS (Day 21, dose group 20): 0.00 X/uL | White Blood Cells LYMP + MONO (Day 21, dose group 20): 6530.00 X/uL | White Blood Cells NEUT (Day 21, dose group 20): 4120.00 X/uL | White Blood Cells WBC (Day 21, dose group 20): 11500 µL⁻¹ | Others Het/Poly (Day 28, dose group 1): 56.33% | Red Blood Cells HCT (Day 28, dose group 1): 33.00% | White Blood Cells BASO (Day 28, dose group 1): 260.00 X/uL | White Blood Cells EOS (Day 28, dose group 1): 0.00 X/uL | White Blood Cells LYMP + MONO (Day 28, dose group 1): 2300.00 X/uL | White Blood Cells NEUT (Day 28, dose group 1): 4106.67 X/uL | White Blood Cells WBC (Day 28, dose group 1): 6670 µL⁻¹ | Others Het/Poly (Day 28, dose group 3): 59.00% | Red Blood Cells HCT (Day 28, dose group 3): 29.67% | White Blood Cells BASO (Day 28, dose group 3): 450.00 X/uL | White Blood Cells EOS (Day 28, dose group 3): 0.00 X/uL | White Blood Cells LYMP + MONO (Day 28, dose group 3): 3216.67 X/uL | White Blood Cells NEUT (Day 28, dose group 3): 5000.00 X/uL | White Blood Cells WBC (Day 28, dose group 3): 8670 µL⁻¹ | Others Het/Poly (Day 28, dose group 20): 44.00% | Red Blood Cells HCT (Day 28, dose group 20): 27.33% | White Blood Cells BASO (Day 28, dose group 20): 393.33 X/uL | White Blood Cells EOS (Day 28, dose group 20): 0.00 X/uL | White Blood Cells LYMP + MONO (Day 28, dose group 20): 3386.67 X/uL | White Blood Cells NEUT (Day 28, dose group 20): 3553.33 X/uL | White Blood Cells WBC (Day 28, dose group 20): 7330 µL⁻¹ | Others Het/Poly (Day 35, dose group 1): 33.00% | Red Blood Cells HCT (Day 35, dose group 1): 29.67% | White Blood Cells BASO (Day 35, dose group 1): 386.67 X/uL | White Blood Cells EOS (Day 35, dose group 1): 0.00 X/uL | White Blood Cells LYMP + MONO (Day 35, dose group 1): 4026.67 X/uL | White Blood Cells NEUT (Day 35, dose group 1): 2253.33 X/uL | White Blood Cells WBC (Day 35, dose group 1): 6670 µL⁻¹ | Others Het/Poly (Day 35, dose group 3): 31.00% | Red Blood Cells HCT (Day 35, dose group 3): 29.00% | White Blood Cells BASO (Day 35, dose group 3): 423.33 X/uL | White Blood Cells EOS (Day 35, dose group 3): 0.00 X/uL | White Blood Cells LYMP + MONO (Day 35, dose group 3): 4366.67 X/uL | White Blood Cells NEUT (Day 35, dose group 3): 2210.00 X/uL | White Blood Cells WBC (Day 35, dose group 3): 7000 µL⁻¹ | Others Het/Poly (Day 35, dose group 20): 34.67% | Red Blood Cells HCT (Day 35, dose group 20): 25.50% | White Blood Cells BASO (Day 35, dose group 20): 393.33 X/uL | White Blood Cells EOS (Day 35, dose group 20): 0.00 X/uL | White Blood Cells LYMP + MONO (Day 35, dose group 20): 4323.33 X/uL | White Blood Cells NEUT (Day 35, dose group 20): 2283.33 X/uL | White Blood Cells WBC (Day 35, dose group 20): 7000 µL⁻¹ | Others Het/Poly (Day 42, dose group 1): 31.33% | Red Blood Cells HCT (Day 42, dose group 1): 30.33% | White Blood Cells BASO (Day 42, dose group 1): 450.00 X/uL | White Blood Cells EOS (Day 42, dose group 1): 0.00 X/uL | White Blood Cells LYMP + MONO (Day 42, dose group 1): 6200.00 X/uL | White Blood Cells NEUT (Day 42, dose group 1): 3016.67 X/uL | White Blood Cells WBC (Day 42, dose group 1): 9670 µL⁻¹ | Others Het/Poly (Day 42, dose group 3): 34.67% | Red Blood Cells HCT (Day 42, dose group 3): 29.33% | White Blood Cells BASO (Day 42, dose group 3): 466.67 X/uL | White Blood Cells EOS (Day 42, dose group 3): 0.00 X/uL | White Blood Cells LYMP + MONO (Day 42, dose group 3): 5760.00 X/uL | White Blood Cells NEUT (Day 42, dose group 3): 3106.67 X/uL | White Blood Cells WBC (Day 42, dose group 3): 9330 µL⁻¹ | Others Het/Poly (Day 42, dose group 20): 35.00% | Red Blood Cells HCT (Day 42, dose group 20): 28.67% | White Blood Cells BASO (Day 42, dose group 20): 406.67 X/uL | White Blood Cells EOS (Day 42, dose group 20): 0.00 X/uL | White Blood Cells LYMP + MONO (Day 42, dose group 20): 4980.00 X/uL | White Blood Cells NEUT (Day 42, dose group 20): 3013.33 X/uL | White Blood Cells WBC (Day 42, dose group 20): 8670 µL⁻¹ | Others Het/Poly (Day 49, dose group 1): 27.33% | Red Blood Cells HCT (Day 49, dose group 1): 29.00% | White Blood Cells BASO (Day 49, dose group 1): 213.33 X/uL | White Blood Cells EOS (Day 49, dose group 1): 40.00 X/uL | White Blood Cells LYMP + MONO (Day 49, dose group 1): 5766.67 X/uL | White Blood Cells NEUT (Day 49, dose group 1): 2646.67 X/uL | White Blood Cells WBC (Day 49, dose group 1): 8670 µL⁻¹ | Others Het/Poly (Day 49, dose group 3): 34.33% | Red Blood Cells HCT (Day 49, dose group 3): 30.67% | White Blood Cells BASO (Day 49, dose group 3): 243.33 X/uL | White Blood Cells EOS (Day 49, dose group 3): 0.00 X/uL | White Blood Cells LYMP + MONO (Day 49, dose group 3): 5510.00 X/uL | White Blood Cells NEUT (Day 49, dose group 3): 2913.33 X/uL | White Blood Cells WBC (Day 49, dose group 3): 8670 µL⁻¹ | Others Het/Poly (Day 49, dose group 20): 43.33% | Red Blood Cells HCT (Day 49, dose group 20): 30.33% | White Blood Cells BASO (Day 49, dose group 20): 296.67 X/uL | White Blood Cells EOS (Day 49, dose group 20): 0.00 X/uL | White Blood Cells LYMP + MONO (Day 49, dose group 20): 4483.33 X/uL | White Blood Cells NEUT (Day 49, dose group 20): 3553.33 X/uL | White Blood Cells WBC (Day 49, dose group 20): 8330 µL⁻¹
